From paper PMC11026381, “Late-stage meta-C–H alkylation of pharmaceuticals to modulate biological properties and expedite molecular optimisation in a single step” (Nature Communications, 2024)
Converted amounts (≈) assume the structure as drawn.

Key:
[1] = Fraction unbound in human plasma (Prot. Bind.), equilibrium dialysis; format: in vitro ADME; details: 5 μM, dialysis at 37 °C for 18 hours
Text: (§1) 5. Pharmaceutically relevant properties modulation
(§2) Product analogues 5e, 6a-6k obtained after late-stage meta-C–H alkylation of the pharmaceutically active compound Emapunil (4e) were subjected to a range of fundamental in vitro drug discovery assays. To prevent hydrolysis of ester groups present on these analogues during biological testing (in order to compare the clearance and metabolic stability between these drug derivatives), their corresponding free acids 5e’, 6a’-6k’ were synthesised (see page S54) and subjected to similar assays.
(§3) The experimental methods used for these physicochemical & drug metabolism and pharmacokinetics (DMPK) assays are described below 11. […]
Fraction unbound in human plasma (Prot. Bind.)
Equilibrium dialysis of compounds was used to assess the fraction unbound in human plasma. Stock solutions of compounds dissolved in DMSO were pooled into cassettes with up to 10 compounds in each cassette with a concentration of 1 mM. The pooled stock solutions were diluted in plasma to a compound concentration of 5 μM. Warfarin, propranolol and metoprolol were used as reference compounds in each run. The equilibrium dialysis device (RED, Thermo Fischer Scientific Inc., Rockford, USA) was used for dialysis against phosphate buffer (pH 7.4) at 37 °C for 18 hours. Calibration curves ranging from 0.001 to 7 μM were made using aliquots of the 7 μM spiked plasma pools that were transferred to a new plate followed by serial dilutions with blank plasma. Calibration curve samples and dialysis samples were precipitated with MeCN and after centrifugation, supernatants were removed and analysed using LC-MS/MS (Waters Xevo-TQS). Fraction unbound in the incubation was calculated as the concentration in the media buffer sample divided by the concentration in the plasma sample. The fraction unbound was reported as the median value.

[2] = Octanol/water partitioning (LogD), shake-flask method; format: physicochemical; details: n = 1; for LogD (octanol): 1-octanol / phosphate buffer pH 7.4, 20 °C; for logD: 1-octanol/phosphate buffer, pH 7.4, 1-octanol / phosphate buffer pH 7.4, 20 °C
Text: as §1, §2, §3
Octanol/water partitioning (LogD)
Partitioning of compounds between 1 -octanol and phosphate buffer (0.1 M, pH 7.4) at 20 °C were determined using a modified version of the shake -flask method described by Leo et al13. Compounds were dissolved in a 96 -well plate, in 400 μL octanol, and 400 μL of buffer was added to each well. The plate was vigorously stirred for 5 min and then put on an Edmund Bühler shaker (Edmund Bühler GmbH, Hechingen, Germany) at 20 °C for 18 hours. Aliquots of 5 μL octanol were transferred and diluted with 495 μL MeCN/H2O (1:1) and, to avoid contamination of the buffer, the rest of the octanol was removed before 150 μL of buffer samples were transferred. Octanol and buffer samples were diluted with MeCN/H2O (1:1) in four steps of 10 times to yield octanol samples diluted 10 2 to 106 times and buffer samples diluted 1 to 104 times. LC-MS/MS (Waters Xevo-TQS) was used for analysis, and distribution coefficient at pH 7.4 (LogD7.4) was calculated from the integrated peak areas of the samples in the linear MS response range. LogD7.4 results were reported as median values. […]

[3] = Metabolic stability in male Han Wistar rat hepatocytes (CLint Rat Hep.); format: in vitro ADME; details: measured on the labelled compound itself, 1 μM, 10^6 viable cells/mL, 37 °C, n = 1
Experimental: Metabolic stability in male Han Wistar rat hepatocytes (CLint Rat Hep.) Hepatocyte metabolic stability was determined in accordance with the method described by Jacobson et al14. Cryopreserved hepatocytes at a concentration of 10 6 viable cells/mL were used. After thawing, hepatocytes were incubated for 10 min to warm to 37 °C, and compounds dissolved in MeCN were […]
incubation system was mixed and 20 μL aliquots were transferred at each time point to wells in a separate plate filled with 80 μL MeCN to stop the reaction. The quenching plate was then vortexed followed by centrifugation, and supernatants were analysed by LC-MS/MS (Waters Xevo-TQS). Peak areas were determined from extracted ion chromatograms, and the in vitro intrinsic clearance (in vitro CLint, in μL/min/10^6 cells) of parent compound was calculated from the slope in the regression analysis of the natural logarithm of parent concentration vs. time curve. Rat Hepatocytes (Cryosuspension, Male Wistar Hannover ) were harvested and s upplied by BioIVT (Product No. M00065, Lot No. DVO).
(§4) The modulation of pharmaceutically relevant properties on meta-C–H alkylation is shown below in Supplementary Fig. 68, with a selection of physicochemical and DMPK data including solubility , LogD, human plasma protein binding (Prot. Bind.) and intrinsic clearance (CLint) in human liver microsomes (HLM) or rat hepatocytes (Rat Hep.) .

[4] = Metabolic stability in human liver microsomes (CLint HLM); format: in vitro ADME; details: 1 mg/mL microsomal protein, 1 mM NADPH, 37 °C; for microsomal CLint at 1 μM: both sexes, human, liver microsomes, pH 7.4, measured on the labelled compound itself, n = 1, read-out: CLint HLM (intrinsic clearance in human liver microsomes); for CLint HLM (intrinsic clearance in human liver microsomes): measured on the labelled compound itself, 1 μM, n = 1
Experimental: Metabolic stability in human liver microsomes (CLint HLM)
Human liver microsomes were defrosted on ice and diluted to 1 mg/mL of microsomal protein in phosphate buffer (0.1 M, pH 7.4). Compounds at 1 μM were incubated with the liver microsome suspensions and 1 mM NADPH at 37 °C in a 96-well plate. At 0.5, 5, 10, 15, 20 and 30 min, aliquots of 30 μL were transferred to a 96-well plate containing 120 μL MeCN. This plate was centrifuged for 20 min and supernatant was removed and diluted with H2O (1:1) before analysis by LC-MS/MS (Waters Xevo-TQS). Peak areas were determined from extracted ion chromatograms, and the in vitro intrinsic clearance (in vitro CLint, in μL/min/mg microsomal protein) of parent compound was calculated from the slope in the regression analysis of the natural logarithm of parent concentration vs. time curve.
Human Liver Microsomes (InVitroCYPTM 150-Donor, Mixed Gender) were harvested and supplied by BioIVT (Product No. X008070, Lot No. QQY). […]
as §4

[5] = Thermodynamic solubility, shake-flask approach, phosphate buffer pH 7.4; format: physicochemical; details: pH 7.4, phosphate buffer 0.1 M, 20 °C, n = 1
Text: as §1, §2
The experimental methods used for these physicochemical & drug metabolism and pharmacokinetics (DMPK) assays are described below 11.
This method measures the thermodynamic solubility of compounds based on a shake-flask approach12.
The nature of the solid state was unknown in these experiments and may be subject to variability. The compounds were dissolved in DMSO (30 μL, 10 mM) in glass vials, and were dried using a Genevac vacuum evaporator (Genevac Ltd, Ipswich, UK). When the samples were dry, 300 μL of phosphate buffer (0.1 M, pH 7.4) was added to the glass vials. The vials were put on an Edmund Bühler shaker (Edmund Bühler GmbH, Hechingen, Germany) at 20 °C for 18 hours. Samples were filtered through a Whatman GF/B 96-well filter and 20 μL of filtrated samples were transferred to separate wells in a plate containing 180 μL MeCN/H2O (1:1). Standards were prepared by diluting the 10 mM compound solutions with MeCN/H2O (1:1) to 200 μM. Three further dilution steps of 10 times were applied to both the samples and standards and they were all analy sed by LC-MS/MS (Waters Xevo-TQS). Solubility was determined using the integrated peak areas of the samples in the linear MS response range. […]

[6] = aqueous buffer, thermodynamic from solid

| SMILES | Prot. Bind. (% free), human plasma protein binding ([1]; n = 1) [% free] | LogD (octanol) [2] | logD [2] | CLint Rat Hep. (intrinsic clearance in rat hepatocytes) [3] [μL/min/10^6] | CLint Rat Hep. (intrinsic clearance in rat hepatocytes) ([3]; listed as 6h’) [μL/min/10^6] | microsomal CLint at 1 μM [4] [µL/min/mg] | CLint HLM (intrinsic clearance in human liver microsomes) [4] [µL/min/mg] | solubility at 18 h [5, 6] [µM] | solubility at 18 h [5] [µM] | Prot. Bind. (% free), human plasma protein binding ([1]; n = 1, listed as 6i’) [% free] | CLint Rat Hep. (intrinsic clearance in rat hepatocytes) ([3]; listed as 6i’) [μL/min/10^6] | Prot. Bind. (% free), human plasma protein binding ([1]; n = 1, listed as 6j’) [% free] | CLint Rat Hep. (intrinsic clearance in rat hepatocytes) ([3]; listed as 6j’) [μL/min/10^6] | CLint Rat Hep. (intrinsic clearance in rat hepatocytes) ([3]; listed as 6k’) [μL/min/10^6] |
| --- | --- | --- | --- | --- | --- | --- | --- | --- | --- | --- | --- | --- | --- | --- |
| CCOC(=O)C1(c2cccc(-c3ncc4c(n3)n(CC(=O)N(CC)Cc3ccccc3)c(=O)n4C)c2)COC1 [6h] | 14.0 | -1.0 | 3.1 | > 300 | 19.3 | > 300 | 4.6 | 58 (≈ 30.7 µg/mL) | > 1000 |  |  |  |  |  |
| CCN(Cc1ccccc1)C(=O)Cn1c(=O)n(C)c2cnc(-c3cccc(C4(C(=O)OC)CCOC4)c3)nc21 (stereo not drawn) [6i] | 7.8 | -0.7 | 2.9 | > 300 |  | > 300 | < 3.0 | 104 (≈ 55.1 µg/mL) | > 1000 | 5.9 | 12.9 |  |  |  |
| CCN(Cc1ccccc1)C(=O)Cn1c(=O)n(C)c2cnc(-c3cccc(C4(C(=O)OCc5ccccc5)CN(C(=O)OC(C)(C)C)C4)c3)nc21 [6j] | < 0.1 | > 3.6 |  | > 300 |  | > 300 | 7.6 | < 2.4 | 910 (≈ 629 µg/mL) |  |  | 0.8 | 17.2 |  |
| CCN(Cc1ccccc1)C(=O)Cn1c(=O)n(C)c2cnc(-c3cccc(C4(C(=O)OCc5ccccc5)CCN(C(=O)OC(C)(C)C)CC4)c3)nc21 [6k] | < 0.3 | > 3.2 |  | 157 |  | > 300 | 24.1 | 6 (≈ 4.31 µg/mL) | 806 (≈ 579 µg/mL) |  |  |  |  | 18.0 |
